This note sets out measurements from patent US9073892B2, “Indazolyl triazol derivatives” (Merck Serono S.A., priority 2010, dated 2015).

Assay [1] relates to IL1β-induced IL8 release in THP1 cells. The assay is described as follows: IRAK IL8 secretion functional assay. Type of assay: cell-based. The conditions noted are these: Homo sapiens; THP-1 cells, IL1β 100 ng/ml overnight, IL8 by HTRF; read-out: IC50, Secretion THP-1/IL-β induced IL8 release. The essentials:
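THP-1 cells (30,000/well, RPMI 1640) were incubated overnight at 37 °C, 5% CO2 with compound (20 μM to 1 nM) plus IL1β at 100 ng/ml final. IL-8 in the supernatant was measured by HTRF with europium cryptate- and XL665-labelled anti-IL8 antibodies, read after 3 h at 30 °C.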
(Time-resolved FRET reads energy transfer from a long-lived donor to a nearby acceptor.)

The test system of a further assay is T1, IRAK1/4 human.
T1 construct: fused on or other part: His tag and TEV cleavage site at the N-terminus
Nature of the assay: IRAK1/4 phosphorylation IC50 (enzymatic assay, table 2). Type of assay: biochemical. Particulars: human IRAK1/4 phosphorylation. In short, it runs like this: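 The IC50 values describe inhibition of His-TEV-tagged human IRAK-1 or IRAK-4. Each enzyme was incubated with ATP and compounds in DMSO at 20 µM to 1 nM for 2 or 3 hours, with STK1-biotin peptide included for IRAK-4.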

pIC50: −log10 of the molar value.

Regarding `O=C(c1ccc(-n2cc(-c3n[nH]c4ccccc34)nn2)cc1)N1CCC[C@H](O)C1` [Example 97, (3S)-1-{4-[4-(1H-indazol-3-yl)-1H-1,2,3-triazol-1-yl]benzoyl}piperidin-3-ol], the pIC50 (in assay [1]; in the assay on IRAK1/4 human) was 6.00 to 7.00 each time.
In the case of `CN1CCC(n2cc(NC(=O)c3ccc(-n4cc(-c5n[nH]c6ccccc56)nn4)cc3)cn2)CC1` [Example 98, 4-[4-(1H-indazol-3-yl)-1H-1,2,3-triazol-1-yl]-N-[1-(1-methylpiperidin-4-yl)-1H-pyrazol-4-yl]benzamide], the values for the pIC50 (in assay [1]; in the assay with IRAK1/4 human) were 6.00 to 7.00 and greater than 7.00, respectively.
With `O=C(c1ccc(-n2cc(-c3n[nH]c4ccccc34)nn2)cc1)N1CCC[C@H]1CO` [Example 99], the pIC50 (in assay [1]; in the assay with IRAK1/4 human) was 6.00 to 7.00 each time.
Consider `O=C(c1ccc(-n2cc(-c3n[nH]c4ccccc34)nn2)cc1)N1CCCCC1CO` (stereo not shown) [Example 100, (1-{4-[4-(1H-indazol-3-yl)-1H-1,2,3-triazol-1-yl]benzoyl}piperidin-2-yl)methanol], for which the pIC50 (in assay [1]; in the assay with IRAK1/4 human) was 6.00 to 7.00 throughout.
As for `O=C(c1ccc(-n2cc(-c3n[nH]c4ccccc34)nn2)cc1C(F)(F)F)N1CCOCC1` [Example 101, 3-{1-[4-(morpholin-4-ylcarbonyl)-3-(trifluoromethyl)phenyl]-1H-1,2,3-triazol-4-yl}-1H-indazole], the figures for the pIC50 (in assay [1]; in the assay with IRAK1/4 human) were 5.30 to 6.00 and 6.00 to 7.00, respectively.
Take `O=C(c1ccc(-n2cc(-c3n[nH]c4ccc(Cn5nc(-c6ccncc6)ccc5=O)cc34)nn2)cc1)N1CCOCC1` [Example 103, 2-[(3-{1-[4-(morpholin-4-ylcarbonyl)phenyl]-1H-1,2,3-triazol-4-yl}-1H-indazol-5-yl)methyl]-6-pyridin-4-ylpyridazin-3(2H)-one]: the pIC50 in assay [1] was 6.00 to 7.00; in the assay on IRAK1/4 human it was greater than 7.00.
On to `CN1CC=C(c2ccc3[nH]nc(-c4cn(-c5ccc(C(=O)N6CCOCC6)cc5)nn4)c3c2)CC1` [Example 104, 5-(1-methyl-1,2,3,6-tetrahydropyridin-4-yl)-3-{1-[4-(morpholin-4-ylcarbonyl)phenyl]-1H-1,2,3-triazol-4-yl}-1H-indazole], for which the pIC50 was 6.00 to 7.00 in assay [1] and greater than 7.00 in the assay with IRAK1/4 human.
In the case of `CC(=O)N1CCC(c2ccc3[nH]nc(-c4cn(-c5ccc(C(=O)N6CCOCC6)cc5)nn4)c3c2)CC1` [Example 105, 5-(1-acetylpiperidin-4-yl)-3-{1-[4-(morpholin-4-ylcarbonyl)phenyl]-1H-1,2,3-triazol-4-yl}-1H-indazole], the pIC50 in assay [1] was 5.30 to 6.00; in the assay with IRAK1/4 human it was 6.00 to 7.00.
For `O=C(c1ccc(-n2cc(-c3n[nH]c4ccc(C5=CCN(Cc6ccccc6)CC5)cc34)nn2)cc1)N1CCOCC1` [Example 106, 5-(1-benzyl-1,2,3,6-tetrahydropyridin-4-yl)-3-{1-[4-(morpholin-4-ylcarbonyl)phenyl]-1H-1,2,3-triazol-4-yl}-1H-indazole], in that order: 5.30 to 6.00 and 6.00 to 7.00.
In the same order, the values of `COC[C@@H]1CCCN1C(=O)c1ccc(-n2cc(-c3n[nH]c4ccccc34)nn2)cc1` [Example 108, 3-[1-(4-{[(2S)-2-(methoxymethyl)pyrrolidin-1-yl]carbonyl}phenyl)-1H-1,2,3-triazol-4-yl]-1H-indazole] are 6.00 to 7.00 and greater than 7.00.
Turning to `COC1CCN(C(=O)c2ccc(-n3cc(-c4n[nH]c5ccccc45)nn3)cc2)CC1` [Example 109, 3-(1-{4-[(4-methoxypiperidin-1-yl)carbonyl]phenyl}-1H-1,2,3-triazol-4-yl)-1H-indazole], the pIC50 (in assay [1]; in the assay on IRAK1/4 human) was 6.00 to 7.00 in each case.
With `Cc1ccc(=O)n(Cc2ccc3[nH]nc(-c4cn(-c5ccc(C(=O)N6CCOCC6)cc5)nn4)c3c2)n1` [Example 110], the figures for the pIC50 (in assay [1]; in the assay with IRAK1/4 human) were 5.30 to 6.00 and 6.00 to 7.00, respectively.
In the same order, the values of `O=C(Nc1cnn(CCN2CCOCC2)c1)c1ccc(-n2cc(-c3n[nH]c4ccccc34)nn2)cc1` [Example 111, 4-[4-(1H-indazol-3-yl)-1H-1,2,3-triazol-1-yl]-N-[1-(2-morpholin-4-ylethyl)-1H-pyrazol-4-yl]benzamide] are 6.00 to 7.00 and 6.00 to 7.00.
For `CN1CCC(n2cc(NC(=O)c3ccc(-n4cc(-c5n[nH]c6ccccc56)nn4)cc3)cn2)C1` (stereo not shown) [Example 112, 4-[4-(1H-indazol-3-yl)-1H-1,2,3-triazol-1-yl]-N-[1-(1-methylpyrrolidin-3-yl)-1H-pyrazol-4-yl]benzamide], in that order: 6.00 to 7.00 and greater than 7.00.
As to `COCCC1CCCN(C(=O)c2ccc(-n3cc(-c4n[nH]c5ccccc45)nn3)cc2)C1` (stereo not shown) [Example 113], the pIC50 (in assay [1]; in the assay on IRAK1/4 human) was 6.00 to 7.00 throughout.
Consider `O=C(c1ccc(-n2cc(-c3n[nH]c4ccccc34)nn2)cc1)N1CC(O)C1` [Example 114, 1-{4-[4-(1H-indazol-3-yl)-1H-1,2,3-triazol-1-yl]benzoyl}azetidin-3-ol], for which the pIC50 (in assay [1]; in the assay with IRAK1/4 human) was 6.00 to 7.00 in each case.
As for `Cc1nccn1CC1CCCN(C(=O)c2ccc(-n3cc(-c4n[nH]c5ccccc45)nn3)cc2)C1` (stereo not shown) [Example 115, 3-{1-[4-({3-[(2-methyl-1H-imidazol-1-yl)methyl]piperidin-1-yl}carbonyl)phenyl]-1H-1,2,3-triazol-4-yl}-1H-indazole], the pIC50 (in assay [1]; with IRAK1/4 human) was 6.00 to 7.00 in each case.
With `O=C(c1ccc(-n2cc(-c3n[nH]c4ccccc34)nn2)cc1)N1CCCCC1CCO` (stereo not shown) [Example 117, 2-(1-{4-[4-(1H-indazol-3-yl)-1H-1,2,3-triazol-1-yl]benzoyl}piperidin-2-yl)ethanol], the pIC50 (in assay [1]; with IRAK1/4 human) was 6.00 to 7.00 throughout.
As to `COCC1CCCN(C(=O)c2ccc(-n3cc(-c4n[nH]c5ccccc45)nn3)cc2)C1` (stereo not shown) [Example 118, 3-[1-(4-{[3-(methoxymethyl)piperidin-1-yl]carbonyl}phenyl)-1H-1,2,3-triazol-4-yl]-1H-indazole], the pIC50 (in assay [1]; with IRAK1/4 human) was 6.00 to 7.00 in each case.
With `O=C(c1ccc(-n2cc(-c3n[nH]c4ccccc34)nn2)cc1)N1CCC(N2CCCC2)CC1` [Example 120, 3-(1-{4-[(4-pyrrolidin-1-ylpiperidin-1-yl)carbonyl]phenyl}-1H-1,2,3-triazol-4-yl)-1H-indazole], the pIC50 (in assay [1]; with IRAK1/4 human) was 6.00 to 7.00 each time.
Turning to `O=C(c1ccc(-n2cc(-c3n[nH]c4ccc(C5CCN(CCF)CC5)cc34)nn2)cc1)N1CCOCC1` [Example 121, 5-[1-(2-fluoroethyl)piperidin-4-yl]-3-{1-[4-(morpholin-4-ylcarbonyl)phenyl]-1H-1,2,3-triazol-4-yl}-1H-indazole], the pIC50 in assay [1] is 6.00 to 7.00; in the assay on IRAK1/4 human, greater than 7.00.
For `Cn1cc(-c2ccc3[nH]nc(-c4cn(-c5ccc(C(=O)N6CCOCC6)cc5)nn4)c3c2)cn1` [Example 123, 5-(1-methyl-1H-pyrazol-4-yl)-3-{1-[4-(morpholin-4-ylcarbonyl)phenyl]-1H-1,2,3-triazol-4-yl}-1H-indazole], in that order: greater than 7.00 and greater than 7.00.
Turning to `O=C(c1ccc(-n2cc(-c3n[nH]c4ccccc34)nn2)cc1)N1CCCC(Cn2ccnc2)C1` (stereo not shown) [Example 126, 3-[1-(4-{[3-(1H-imidazol-1-ylmethyl)piperidin-1-yl]carbonyl}phenyl)-1H-1,2,3-triazol-4-yl]-1H-indazole], the results for the pIC50 (in assay [1]; in the assay on IRAK1/4 human) were 6.00 to 7.00 and greater than 7.00, respectively.
